Reference: ChEMBL document CHEMBL5647694, “Novel orally bioavailable EZH1/2 dual inhibitors with greater antitumor efficacy than an EZH2 selective inhibitor” (Cancer Sci, 2017)

What was measured:
[1] = Toxicity in Crl:CD Sprague-Dawley rat assessed as […] dehydrogenase level in blood at 100 mg/kg, po administered daily for 14 days (reference value: 103 +/-16.1 U/L); type: organism-based; details: in vivo, 336 h, time 14 day
[2] = Toxicity in Crl:CD Sprague-Dawley rat assessed as aspartate aminotransferase level in blood at 100 mg/kg, po administered daily for 14 days (reference value: 72+/-5.03 U/L); type: organism-based; details: in vivo, 336 h, time 14 day
[3] = target: Protein kinase C iota type (Homo sapiens) (UniProt P41743); assay: Inhibition of N-terminal GST-fused human full length PKC-iota (1 to 587 residues ) expressed in baculovirus expression system using PKC peptide as substrate at 1 uM in presence of ATP by Mobility shift assay
Protein kinase C iota type (Homo sapiens), sequence (P41743 whole entry, the tested form may be a part): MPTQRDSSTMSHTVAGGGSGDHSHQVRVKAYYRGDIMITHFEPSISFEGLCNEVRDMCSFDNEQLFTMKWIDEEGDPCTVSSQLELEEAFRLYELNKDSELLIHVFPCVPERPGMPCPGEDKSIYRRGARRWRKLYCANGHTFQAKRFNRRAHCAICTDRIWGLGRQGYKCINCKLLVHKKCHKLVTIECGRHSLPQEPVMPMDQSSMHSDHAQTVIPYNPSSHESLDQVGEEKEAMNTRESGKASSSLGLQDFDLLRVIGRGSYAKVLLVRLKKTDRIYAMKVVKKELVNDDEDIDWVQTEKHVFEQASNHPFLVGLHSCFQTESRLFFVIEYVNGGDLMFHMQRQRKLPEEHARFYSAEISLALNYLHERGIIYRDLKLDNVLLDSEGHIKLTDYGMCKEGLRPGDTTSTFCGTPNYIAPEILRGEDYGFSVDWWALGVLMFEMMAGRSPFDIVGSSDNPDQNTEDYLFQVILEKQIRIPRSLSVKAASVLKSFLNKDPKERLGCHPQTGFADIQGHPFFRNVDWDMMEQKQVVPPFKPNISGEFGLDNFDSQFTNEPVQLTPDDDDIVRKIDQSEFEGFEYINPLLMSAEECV

[4] = Cmax in Crl:CD Sprague-Dawley rat at 100 mg/kg, po by LC/MS/MS analysis; type: ADME, organism-based; details: in vivo
[5] = Toxicity in Crl:CD Sprague-Dawley rat assessed as creatinine level in blood at 100 mg/kg, po administered daily for 14 days (reference value: 0.223 +/-[…]); type: organism-based; details: in vivo, 336 h, time 14 day
[6] = Toxicity in Crl:CD Sprague-Dawley rat assessed as hypertrophy of zona fasciculata/reticularis cells in adrenal at 100 mg/kg, po administered daily for 14 days by hematoxylin and eosin staining based analysis; type: organism-based; details: in vivo, 336 h, time 14 day
[7] = Cmax in BALB/c mouse at 6.3 mg/kg administered as single dose; type: ADME, organism-based; details: in vivo, route po
[8] = test system: HCT-15; assay: Antitumor activity against human HCT-15 cells assessed as cell growth inhibition treated for 10 to 15 days; type: functional; details: time 10-15 day
[9] = test system: HL-60; assay: Antitumor activity against human HL-60 cells assessed as cell growth inhibition treated for 10 to 15 days; type: functional; details: time 10-15 day
[10] = test system: Hs746T; assay: Antitumor activity against human Hs746T cells assessed as cell growth inhibition treated for 10 to 15 days; type: functional; details: time 10-15 day
[11] = test system: Jurkat; assay: Antitumor activity against human Jurkat cells clone E6-1 assessed as cell growth inhibition treated for 10 to 15 days; type: functional; details: time 10-15 day
[12] = test system: OAW-42; assay: Antitumor activity against human OAW-42 cells assessed as cell growth inhibition treated for 10 to 15 days; type: functional; details: time 10-15 day
[13] = test system: Rec1; assay: Antitumor activity against human REC1 cells assessed as cell growth inhibition treated for 10 to 15 days; type: functional; details: time 10-15 day
[14] = test system: BT-549; assay: Antitumor activity against human BT-549 cells assessed as cell growth inhibition treated for 10 to 15 days; type: functional; details: time 10-15 day
[15] = test system: U-937; assay: Antitumor activity against human U-937 cells assessed as cell growth inhibition treated for 10 to 15 days; type: functional; details: time 10-15 day
[16] = Antitumor activity against human MDA-PCa-2b cells assessed as cell growth inhibition treated for 10 to 15 days; type: functional; details: time 10-15 day
[17] = test system: JM1; assay: Antitumor activity against human JM1 cells assessed as cell growth inhibition treated for 10 to 15 days; type: functional; details: time 10-15 day
[18] = Antitumor activity against human EB1 cells assessed as cell growth inhibition treated for 10 to 15 days; type: functional; details: time 10-15 day
[19] = target: Histone-lysine N-methyltransferase NSD2 (Homo sapiens, UniProt O96028, E1099K); assay: Inhibition of human NSD2 E1099K mutant using Nucleosomes and [3H]SAM as substrate incubated for 30 mins to 1 hr by HotSpot kinase assay
Histone-lysine N-methyltransferase NSD2, sequence (O96028 whole entry E1099K): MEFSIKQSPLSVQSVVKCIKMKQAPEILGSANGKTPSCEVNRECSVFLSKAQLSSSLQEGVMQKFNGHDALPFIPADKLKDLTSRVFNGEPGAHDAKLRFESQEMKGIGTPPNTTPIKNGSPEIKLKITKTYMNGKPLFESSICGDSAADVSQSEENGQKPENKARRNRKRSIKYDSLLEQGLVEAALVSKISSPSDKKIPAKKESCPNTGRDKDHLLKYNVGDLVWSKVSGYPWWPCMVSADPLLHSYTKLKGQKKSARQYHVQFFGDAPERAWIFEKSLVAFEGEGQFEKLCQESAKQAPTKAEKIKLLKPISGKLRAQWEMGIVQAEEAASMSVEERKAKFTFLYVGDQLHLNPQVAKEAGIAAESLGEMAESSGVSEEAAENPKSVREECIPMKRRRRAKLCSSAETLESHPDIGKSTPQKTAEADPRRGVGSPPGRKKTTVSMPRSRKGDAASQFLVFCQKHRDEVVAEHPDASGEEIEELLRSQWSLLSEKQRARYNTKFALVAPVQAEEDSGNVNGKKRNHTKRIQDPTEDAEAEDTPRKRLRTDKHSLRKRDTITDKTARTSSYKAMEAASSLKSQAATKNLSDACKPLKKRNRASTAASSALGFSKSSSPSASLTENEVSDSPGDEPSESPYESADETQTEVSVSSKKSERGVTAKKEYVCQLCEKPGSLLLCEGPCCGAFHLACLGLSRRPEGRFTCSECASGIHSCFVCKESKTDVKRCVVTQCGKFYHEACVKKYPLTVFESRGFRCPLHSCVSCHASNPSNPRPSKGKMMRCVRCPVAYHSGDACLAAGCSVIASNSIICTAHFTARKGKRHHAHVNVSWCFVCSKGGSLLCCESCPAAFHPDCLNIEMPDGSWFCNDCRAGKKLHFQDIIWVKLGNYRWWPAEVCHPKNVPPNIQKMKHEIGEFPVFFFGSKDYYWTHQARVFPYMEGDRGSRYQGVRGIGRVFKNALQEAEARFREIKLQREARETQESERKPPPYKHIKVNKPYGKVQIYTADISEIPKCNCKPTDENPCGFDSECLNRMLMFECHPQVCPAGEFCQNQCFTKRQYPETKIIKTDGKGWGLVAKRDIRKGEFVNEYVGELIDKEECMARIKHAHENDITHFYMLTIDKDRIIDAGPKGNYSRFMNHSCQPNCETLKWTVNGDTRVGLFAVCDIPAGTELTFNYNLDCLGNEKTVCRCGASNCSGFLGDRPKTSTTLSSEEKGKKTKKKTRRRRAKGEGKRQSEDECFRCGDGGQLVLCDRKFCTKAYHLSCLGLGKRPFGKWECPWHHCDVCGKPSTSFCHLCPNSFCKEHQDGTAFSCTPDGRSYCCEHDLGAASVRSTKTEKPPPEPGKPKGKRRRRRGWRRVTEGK

[20] = test system: SNU-449; assay: Antitumor activity against human SNU-449 cells assessed as cell growth inhibition treated for 10 to 15 days; type: functional; details: time 10-15 day
[21] = target: Tyrosine-protein kinase SYK (Homo sapiens) (UniProt P43405); assay: Inhibition of N-terminal GST-tagged full length human SYK (1 to 635 residues) expressed in baculovirus-infected Sf21 cells using Blk/Lyntide as substrate at 1 uM in presence of ATP by Mobility shift assay
[22] = test system: LoVo; assay: Antitumor activity against human LoVo cells assessed as cell growth inhibition treated for 10 to 15 days; type: functional; details: time 10-15 day
[23] = test system: PC-3; assay: Antitumor activity against human PC-3 cells assessed as cell growth inhibition treated for 10 to 15 days; type: functional; details: time 10-15 day
[24] = Antitumor activity against human COV434 cells assessed as cell growth inhibition treated for 10 to 15 days; type: functional; details: time 10-15 day
[25] = test system: HT1197; assay: Antitumor activity against human HT1197 cells assessed as cell growth inhibition treated for 10 to 15 days; type: functional; details: time 10-15 day
[26] = test system: HCC1937; assay: Antitumor activity against human HCC1937 cells assessed as cell growth inhibition treated for 10 to 15 days; type: functional; details: time 10-15 day
[27] = test system: HH; assay: Antitumor activity against human HH cells assessed as cell growth inhibition treated for 10 to 15 days; type: functional; details: time 10-15 day
[28] = test system: ZR-75-1; assay: Antitumor activity against human ZR-75-1 cells assessed as cell growth inhibition treated for 10 to 15 days; type: functional; details: time 10-15 day
[29] = test system: G-401; assay: Antitumor activity against human G-401 cells assessed as cell growth inhibition treated for 10 to 15 days; type: functional; details: time 10-15 day
[30] = test system: MC116; assay: Antitumor activity against human MC116 cells assessed as cell growth inhibition treated for 10 to 15 days; type: functional; details: time 10-15 day
[31] = test system: MDA-MB-175-VII; assay: Antitumor activity against human MDA-MB-175-VII cells assessed as cell growth inhibition treated for 10 to 15 days; type: functional; details: time 10-15 day
[32] = Antitumor activity against human OVMANA cells assessed as cell growth inhibition treated for 10 to 15 days; type: functional; details: time 10-15 day
[33] = test system: NUGC-3; assay: Antitumor activity against human NUGC-3 cells assessed as cell growth inhibition treated for 10 to 15 days; type: functional; details: time 10-15 day
[34] = test system: NCI-H1436; assay: Antitumor activity against human NCI-H1436 cells assessed as cell growth inhibition treated for 10 to 15 days; type: functional; details: time 10-15 day
[35] = test system: Raji; assay: Antitumor activity against human Raji cells assessed as cell growth inhibition treated for 10 to 15 days; type: functional; details: time 10-15 day
[36] = target: Histone-lysine N-methyltransferase 2C (Homo sapiens, UniProt Q8NEZ4); assay: Inhibition of human MLL3 using Core Histone and [3H]SAM as substrate incubated for 30 mins to 1 hr by HotSpot kinase assay
[37] = Antitumor activity against human COV504 cells assessed as cell growth inhibition treated for 10 to 15 days; type: functional; details: time 10-15 day
[38] = test system: KMS-11; assay: Antitumor activity against human KMS-11 cells assessed as cell growth inhibition treated for 10 to 15 days; type: functional; details: time 10-15 day
[39] = test system: HT; assay: Antitumor activity against human HT cells assessed as cell growth inhibition treated for 10 to 15 days; type: functional; details: time 10-15 day
[40] = test system: SUP-B15; assay: Antitumor activity against human SUP-B15 cells assessed as cell growth inhibition treated for 10 to 15 days; type: functional; details: time 10-15 day
[41] = test system: CAMA-1; assay: Antitumor activity against human CAMA-1 cells assessed as cell growth inhibition treated for 10 to 15 days; type: functional; details: time 10-15 day
[42] = test system: CEM/C2; assay: Antitumor activity against human CEM/C2 cells assessed as cell growth inhibition treated for 10 to 15 days; type: functional; details: time 10-15 day
[43] = test system: SUP-T1; assay: Antitumor activity against human SUP-T1 cells assessed as cell growth inhibition treated for 10 to 15 days; type: functional; details: time 10-15 day
[44] = target: DNA (cytosine-5)-methyltransferase 3A (Homo sapiens, UniProt Q9Y6K1); assay: Inhibition of human DNMT3a using lambda DNA and [3H]SAM as substrate incubated for 30 mins to 1 hr by HotSpot kinase assay
DNA (cytosine-5)-methyltransferase 3A, sequence (Q9Y6K1 whole entry, looked up): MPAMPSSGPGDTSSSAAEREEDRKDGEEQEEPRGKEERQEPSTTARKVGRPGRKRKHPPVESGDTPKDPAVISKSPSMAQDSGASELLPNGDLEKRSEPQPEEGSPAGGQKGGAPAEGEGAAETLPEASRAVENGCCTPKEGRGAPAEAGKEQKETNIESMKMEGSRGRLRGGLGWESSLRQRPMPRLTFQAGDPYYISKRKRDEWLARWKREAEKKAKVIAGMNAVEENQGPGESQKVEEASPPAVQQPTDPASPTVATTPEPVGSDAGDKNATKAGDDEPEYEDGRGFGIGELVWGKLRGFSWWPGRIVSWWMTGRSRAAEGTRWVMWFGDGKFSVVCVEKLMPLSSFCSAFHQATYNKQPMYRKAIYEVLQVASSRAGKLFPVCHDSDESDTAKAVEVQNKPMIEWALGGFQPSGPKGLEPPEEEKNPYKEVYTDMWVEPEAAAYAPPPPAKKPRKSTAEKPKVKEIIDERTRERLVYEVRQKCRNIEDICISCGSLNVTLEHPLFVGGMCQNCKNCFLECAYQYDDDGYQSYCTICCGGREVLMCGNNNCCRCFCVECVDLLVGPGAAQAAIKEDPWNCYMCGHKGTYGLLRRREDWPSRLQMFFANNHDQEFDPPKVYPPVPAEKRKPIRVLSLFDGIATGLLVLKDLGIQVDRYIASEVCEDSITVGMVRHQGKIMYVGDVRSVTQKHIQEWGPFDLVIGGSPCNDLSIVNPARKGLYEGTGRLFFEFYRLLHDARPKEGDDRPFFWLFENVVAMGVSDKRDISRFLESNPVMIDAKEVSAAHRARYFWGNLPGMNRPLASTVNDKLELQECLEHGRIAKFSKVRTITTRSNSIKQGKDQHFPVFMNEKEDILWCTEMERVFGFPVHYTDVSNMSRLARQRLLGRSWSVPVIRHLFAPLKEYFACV

[45] = test system: MKN-1; assay: Antitumor activity against human MKN-1 cells assessed as cell growth inhibition treated for 10 to 15 days; type: functional; details: time 10-15 day

Cc1cc(C)c(CNC(=O)c2cc(Br)c3c(c2C)O[C@@](C)([C@H]2CC[C@H](N(C)C)CC2)O3)c(=O)[nH]1
Activity [1]: 137 U/L
Activity [2]: 71.8 U/L
inhibition [3]: 22.3%
Cmax [4]: 2150 nM
Activity [5]: 0.238 mg/dL
Activity [6]: Toxic
Cmax [7]: 450 nM

Cc1cc(C)c(CNC(=O)c2cc(Cl)c3c(c2C)O[C@@](C)([C@H]2CC[C@H](N(C)C)CC2)O3)c(=O)[nH]1 [VALEMETOSTAT]
GI50 [8]: > 1000 nM
GI50 [9]: > 1000 nM
GI50 [10]: > 1000 nM
GI50 [11]: > 1000 nM
GI50 [12]: > 1000 nM
GI50 [13]: 480 nM
GI50 [14]: > 1000 nM
GI50 [15]: > 1000 nM
GI50 [16]: 12.5 nM
GI50 [17]: > 1000 nM
GI50 [18]: 48.2 nM
IC50 [19]: 100 µM
GI50 [20]: > 1000 nM
inhibition [21]: -8.4%
GI50 [22]: 150 nM
GI50 [23]: > 1000 nM
GI50 [24]: 1.5 nM
GI50 [25]: 13.1 nM
GI50 [26]: > 1000 nM
GI50 [27]: 7.18 nM
GI50 [28]: 138 nM
GI50 [29]: 17.7 nM
GI50 [30]: 50.4 nM
GI50 [31]: 43.9 nM
GI50 [32]: > 1000 nM
GI50 [33]: 920 nM
GI50 [34]: 216 nM
GI50 [35]: 11.2 nM
IC50 [36]: 100 µM
GI50 [37]: 317 nM
GI50 [38]: 10.3 nM
GI50 [39]: 1.74 nM
GI50 [40]: 24.3 nM
GI50 [41]: 6.56 nM
GI50 [42]: > 1000 nM
GI50 [43]: > 1000 nM
IC50 [44]: 100 µM
GI50 [45]: > 1000 nM
